Results on one compound are retold here after patent US11059844B2, “Immune stimulating macrolides” (ISR IMMUNE SYSTEM REGULATION HOLDING AB (PUBL), priority 2017, dated 2021).

Each structure is given as a SMILES string.

For test [1], the system named is Bifidobacterium longum subsp. infantis. Put plainly: Minimum Inhibitory Concentration (MIC) assay. Type of test: cell-based. The settings on record: anaerobic, 37° C., 18 h. The protocol:
(§1) The bioactivity of macrolide compounds against 4 strains of common gut bacteria (Escherichia coli, Streptococcus salivarius subsp. salivarius, Lactobacillus casei and Bifidobacterium longum subsp. infantis) and common mammalian skin isolate Micrococcus luteus, was assessed using the Minimum Inhibitory Concentration (MIC) assay. Bacterial strains were purchased from DSMZ (Brunswick, Germany) except M. luteus which was obtained from NCIMB, and stored in 20% glycerol at −80° C. Stock solutions (100% DMSO) of positive controls (azithromycin and erythromycin), and of test compounds 1 and 2 were diluted in broth to working stock concentrations of 256 μg/ml (final assay testing concentration range 128 μg/ml to 0.00391 μg/ml). Stock solutions of all other compounds were diluted in broth to working stock concentrations of 128 μg/ml (final assay testing concentration range 64 μg/ml to 0.00195 μg/ml). Bacterial strains were cultivated in appropriate broth in an anaerobic chamber at 37° C., except for M. luteus which was incubated aerobically at 37° C. 18 h cultures were diluted in broth to an OD595 of 0.1 and then further diluted 1:10. In 96-well plates, in duplicate, 200 μl working stock of test compound was transferred to well 1 and serially diluted (1:2) in broth. 100 μl bacterial suspension was aliquoted into each well and mixed thoroughly. Appropriate sterility controls were included and plates were incubated in an anaerobic chamber, or aerobically (M. luteus) at 37° C. for 18 h. The MIC was determined to be the concentration of test compound in the first well with no visible growth.

In another test the test system is Escherichia coli. Put plainly: Minimum Inhibitory Concentration (MIC) assay. The settings on record: anaerobic, 37° C., 18 h. It is filed as cell-based. The protocol:
as §1

The test system of the next test is Lactobacillus casei. Put plainly: Minimum Inhibitory Concentration (MIC) assay. Type of test: cell-based. Conditions: Lacticaseibacillus casei; anaerobic, 37° C., 18 h. The procedure: as §1
A further test relates to Micrococcus luteus. The test can be described thus: Minimum Inhibitory Concentration (MIC) assay. Type of test: cell-based. Conditions: aerobic, 37° C., 18 h. The protocol: as §1
Test [2] deals with Streptococcus salivarius subsp. salivarius. Put plainly: Minimum Inhibitory Concentration (MIC) assay. It is filed as cell-based. Conditions: anaerobic, 37° C., 18 h. The procedure: as §1
The test system of test [3] is E. coli, S. salivarius, L. casei, B. longum or M. luteus. The test can be described thus: Direct antibacterial activity, summary over all strains tested. Conditions: summary in words of Table 1. It is filed as cell-based. The protocol:
as §1

The target in the next test is T1, human TLR2 (Homo sapiens, UniProt O60603).
T1 construct: host or cells: recombinant HEK-293-TLR cell lines
Put plainly: TLR2 reporter assay (HEK-293-TLR, SEAP). Type of test: cell-based. The procedure: Samples and controls were tested in duplicate on recombinant HEK-293-TLR cell lines using a cell reporter assay at Invivogen using their standard assay conditions. These cell lines functionally over-express human TLR2 protein as well as a reporter gene which is a secreted alkaline phosphatase (SEAP). The production of this reporter gene is driven by an NFkB inducible promoter. The TLR reporter cell lines activation results are given as optical density values (OD).
20 μl of each test article were used to stimulate the hTLR2 reporter cell lines in a 200 μl of final reaction volume. Samples were tested in duplicate, with at least two concentrations tested—20 uM and 10 uM.
Compounds were tested using a TLR2 reporter assay (see general methods) that measured for stimulation of the TLR2 receptor. Stimulatory effect was measured as an increase in optical density (OD) due to release of secreted alkaline phosphatase (SEAP) and is shown in table 4: […]
In general terms: A reporter such as luciferase makes a cellular process visible.

In test [4] the test system is PBMCs from CMV infected donors. The test can be described thus: IFN-gamma secretion from PBMCs of CMV infected donors with CMV antigen (cytometric bead assay). It is filed as cell-based, Human. The settings on record: 3 days. From the text: FIG. 9: Interferon-gamma secretion (as measured by cytometric bead assay) from PBMCs (from a CMV+ donor) grown with CMV peptides in the presence or absence of compound 1 or A for 5 days.
Study 8: PBMCs from CMV infected donors cultured in the presence of CMV antigen where either untreated or exposed to compound 1 or compound 2 for 3 days.

In a further test the test system is PBMCs. The test can be described thus: Cytokine/chemokine secretion from PBMCs (cytometric bead assay). Type of test: cell-based, Human. The settings on record: 2 days. The procedure:
FIG. 11: Chemokine RANTES secretion (as measured by cytometric bead assay) from PBMC or macrophages stimulated with indicated compound for 48 h.
FIG. 12: IL12p70 secretion (as measured by cytometric bead assay) from PBMC or macrophages stimulated with indicated compound for 48 h.
FIG. 13: IL1b secretion (as measured by cytometric bead assay) from PBMC, macrophages or CD4 T cells stimulated with indicated compound for 48 h.
Study 10: PBMCs and macrophages where exposed to compounds 1 or 2 for 2 days (FIG. 11).
Study 11: PBMCs and macrophages where exposed to compounds 1 and 2 for 2 days.
Study 12: PBMCs, macrophages and CD4+ T cells where exposed to compounds 1 and 2 for 2 days.

T1 sequence (O60603 21-784): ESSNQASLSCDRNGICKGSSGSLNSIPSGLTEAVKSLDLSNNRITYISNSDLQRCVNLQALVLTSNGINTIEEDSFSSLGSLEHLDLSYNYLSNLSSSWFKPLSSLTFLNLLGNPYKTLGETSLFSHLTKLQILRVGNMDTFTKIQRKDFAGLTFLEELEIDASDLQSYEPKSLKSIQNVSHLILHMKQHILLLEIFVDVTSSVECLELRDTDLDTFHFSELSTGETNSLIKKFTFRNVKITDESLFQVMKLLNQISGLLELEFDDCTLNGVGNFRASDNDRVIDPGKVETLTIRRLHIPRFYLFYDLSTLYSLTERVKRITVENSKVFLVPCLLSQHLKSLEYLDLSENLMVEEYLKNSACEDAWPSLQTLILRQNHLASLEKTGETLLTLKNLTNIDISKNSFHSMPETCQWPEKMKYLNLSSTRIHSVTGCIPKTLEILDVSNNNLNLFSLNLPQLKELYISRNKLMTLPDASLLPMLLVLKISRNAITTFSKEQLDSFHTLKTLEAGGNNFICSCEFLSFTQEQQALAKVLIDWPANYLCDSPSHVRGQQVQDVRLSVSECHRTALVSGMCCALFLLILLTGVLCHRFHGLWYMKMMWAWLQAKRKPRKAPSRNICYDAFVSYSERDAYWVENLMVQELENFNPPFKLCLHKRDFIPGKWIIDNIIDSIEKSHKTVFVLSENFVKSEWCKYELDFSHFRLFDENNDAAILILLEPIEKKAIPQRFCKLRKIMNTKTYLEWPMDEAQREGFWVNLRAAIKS

For `CC[C@H]1OC(=O)[C@H](C)[C@@H](O[C@H]2C[C@@H](N(C)C)[C@H](O)[C@@H](C)O2)[C@H](C)[C@@H](O)[C@](C)(O)C[C@@H](C)CN(C)[C@H](C)[C@@H](O)[C@]1(C)O` [Compound 1], the MIC in test [1] was over 64 mg/L; against Escherichia coli, over 64 mg/L; against Lactobacillus casei, over 64 mg/L; against Micrococcus luteus, over 256 mg/L; in test [2] it was over 64 mg/L. Besides, in test [3], the “antibacterial activity against the bacterial strains tested” value was “no antibacterial activity”. For the same compound, the “lowest concentration at which TLR2 was stimulated (concentrations down to)” value on human TLR2 is 5 µM. Also, the “OD after addition of 5 μM test article” value on human TLR2 (5 μM) came out at 0.111 OD. The “OD after addition of 10 μM test article” value on human TLR2 (10 μM) worked out at 0.202 OD. Further, on human TLR2 (20 μM), the “OD after addition of 20 μM test article” value is recorded as 0.458 OD. In addition, the “IFN-gamma secretion, PBMCs with CMV antigen” value in [4] is listed as “induced secretion of high levels”. The “IL-1beta secretion, PBMCs” value with PBMCs was “slightly”. Moreover, in the test with PBMCs, the “IL-12p70 secretion, PBMCs” value is “secreted IL-12p70”. Further, the “RANTES expression, PBMCs” value in the test on PBMCs is reported as “twofold upregulation”.

In general, MIC refers to the lowest concentration that inhibits growth of the organism.
